# Values joined by “and” are separate entries in the source; they are usually repeats but may differ in a detail not shown here. Identical values can stand only once. Like-named read-outs stand apart in the source and are kept apart here.
# How the values were obtained:
# SAWy710 (EV) = experiment: High throughput assay validation, empty vector (EV) control strain SAWy710, AZD versus DMSO; format: cell-based, Saccharomyces cerevisiae; conditions: individual wells 1-16, listed as AZD
# Δjen1 EV = experiment: Growth with lactate as sole carbon source, Δjen1 carrying empty vector (EV) control; format: cell-based, Saccharomyces cerevisiae
# MCT1 = conditions: cited from earlier work
# [1] = patients with advanced cancer; dose-limiting toxicity relating to retinopathy at higher concentrations; cited from earlier work
# MCT1 (F360C) = MCT1 (F360C) (UniProt P36035+P53987, F360C); experiment: Growth with lactate as sole carbon source, by4741 Δjen1 expressing MCT1(F360C); conditions: for growth curve reading, single replicate / growth curve reading, mean of 4 replicates: Δjen1 MCT1(F360C)
# MCT1 (F360C), sequence (P36035+P53987 fused P53987:F360C): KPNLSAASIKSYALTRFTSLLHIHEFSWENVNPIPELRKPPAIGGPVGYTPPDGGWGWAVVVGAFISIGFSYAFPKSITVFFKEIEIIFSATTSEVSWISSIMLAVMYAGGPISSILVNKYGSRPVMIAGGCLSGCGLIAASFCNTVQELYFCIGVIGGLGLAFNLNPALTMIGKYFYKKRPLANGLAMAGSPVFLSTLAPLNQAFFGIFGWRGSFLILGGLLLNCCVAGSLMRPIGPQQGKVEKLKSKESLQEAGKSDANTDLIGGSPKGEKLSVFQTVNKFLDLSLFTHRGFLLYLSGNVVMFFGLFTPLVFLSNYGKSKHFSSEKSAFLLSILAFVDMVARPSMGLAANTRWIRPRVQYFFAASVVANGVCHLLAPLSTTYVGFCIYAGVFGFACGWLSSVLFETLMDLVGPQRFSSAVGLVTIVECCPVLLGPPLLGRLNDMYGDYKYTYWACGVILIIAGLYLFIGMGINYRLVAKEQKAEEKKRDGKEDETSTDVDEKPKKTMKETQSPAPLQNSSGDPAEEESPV
# Experimental: (§1) Yeast was propagated, transformed, and assayed in synthetic complete media. Synthetic media was composed of 1.5 g Difco yeast nitrogen base without amino acids and ammonium sulfate, 5 g ammonium sulfate, 200 μM inositol, and 2 g amino acid powder mix per liter. For all studies using MCT1, uracil was excluded to maintain plasmid selection. The carbon source for most experiments was 2% glucose; however, for growth in alternative carbon sources lactate (0.5% v/v) or pyruvate (40 mM) was used instead with media pH adjustment to 5.0.
# (§2) For growth in lactate or pyruvate as a sole carbon source by4741 and an equivalent strain with a JEN1 knockout was obtained from the nonessential gene deletion library [62].
# (§3) Supplementary file pone.0312492.s005.tif: S5 Fig Growth of the optimal MCT1 fusion in lactate and sensitivity to AZD3965 administration. […] AZD3965 was added to the media at a concentration of 10 μM.
# MCT1 (wildtype) = MCT1 (wildtype) (UniProt P36035+P53987); experiment: Growth with lactate as sole carbon source, by4741 Δjen1 expressing wild-type MCT1
# MCT1 (wildtype), sequence (P36035+P53987 fused): as the sequence (P36035+P53987 fused P53987:F360C) above, with C398F counted along it
# Experimental: as §1, §2, §3
# parent strain (SAWy518) [2] = test system: parent strain (SAWy518)
# [3] = cited from earlier work
# [4] = target: neurokinin 1 (NK1) receptor; conditions: library annotation; cited from earlier work
# [5] = target: neurokinin 1 (NK1) receptor; parameters: method as in not given; conditions: library annotation; ref not given; cited from earlier work
# [6] = target: neurokinin 1 (NK1) receptor; conditions: library annotation; cited from earlier work; remark: listed apart in the source
# parent strain (SAWy518) [7] = experiment: microbe, parasite or virus in culture; parameters: species or system Saccharomyces cerevisiae SAWy518; Off-target growth counter-screen, OD600 as per cent of untreated wells, strain lacking MCT1; conditions: 18.5 h; sheet Primary Screen - final;; off-target growth of parent strain, about 18 h
# cancer cell growth = conditions: cited from earlier work
# tumor growth = conditions: cited from earlier work
# MCT4 [8] = conditions: HAP1 cells, library annotation; cited from earlier work
# MCT4 [9] = conditions: HAP1 cells; NOTES column annotation; cited from earlier work
# survivin [10] = conditions: library annotation; cited from earlier work
# survivin [11] = conditions: NOTES column annotation; cited from earlier work
# survivin [12] = conditions: library annotation; cited from earlier work; remark: listed apart in the source
molecule,measurement,setting,value
Cc1[nH]nc(C(F)(F)F)c1Cc1sc2c(c1C(=O)N1C[C@](C)(O)CO1)c(=O)n(C)c(=O)n2C(C)C [AZD3965],OD600,"SAWy710 (EV); Condition non, Replicate1, EV strain SAWy710, 10 µM AZD",0.1411 and 0.1378 and 0.134 and 0.1369 and 0.1383 and 0.1317 and 0.135 and 0.1363 and 0.1403 and 0.1392 and 0.1365 and 0.1389 and 0.1394 and 0.149
same,OD600,"SAWy710 (EV); Condition non, Replicate2, EV strain SAWy710, 10 µM AZD",0.1384 and 0.1406 and 0.1366 and 0.135 and 0.1021 and 0.1315 and 0.1407 and 0.1329 and 0.1336 and 0.1393 and 0.1343 and 0.134 and 0.138 and 0.1378 and 0.1431
same,OD600,"SAWy710 (EV); Condition perm, Replicate1, EV strain SAWy710, 10 µM AZD",0.7718 and 0.7777 and 0.7776 and 0.7734 and 0.7269 and 0.7398 and 0.7671 and 0.7655 and 0.7645 and 0.774 and 0.768 and 0.7629 and 0.759 and 0.7698 and 0.7556 and 0.7591
same,OD600,"SAWy710 (EV); Condition perm, Replicate2, EV strain SAWy710, 10 µM AZD",0.1774 and 0.1728 and 0.1654 and 0.1606 and 0.1374 and 0.1596 and 0.1712 and 0.1673 and 0.1713 and 0.168 and 0.1743 and 0.17 and 0.1727 and 0.1704 and 0.1842
same,"growth curve reading, single replicate","Δjen1 EV; T1, time 19",0.1091 and 0.1160 and 0.1215 and 0.1310
same,"growth curve reading, single replicate","Δjen1 EV; T2, time 21",0.1392 and 0.1432 and 0.1501
same,"growth curve reading, single replicate","Δjen1 EV; T3, time 25",0.1257 and 0.1403 and 0.1504
same,"growth curve reading, single replicate","Δjen1 EV; T4, time 27.5",0.1322 and 0.1452 and 0.1564 and 0.1709
same,"growth curve reading, single replicate","Δjen1 EV; T5, time 43",0.1444 and 0.1533 and 0.1681 and 0.1884
same,"growth curve reading, single replicate","Δjen1 EV; T6, time 45.5",0.1453 and 0.1535 and 0.1657 and 0.1862
same,"growth curve reading, single replicate","Δjen1 EV; T7, time 48",0.1464 and 0.1540 and 0.1668 and 0.1877
same,"growth curve reading, mean of 4 replicates",Δjen1 EV; time 19,0.1194
same,"growth curve reading, mean of 4 replicates",Δjen1 EV; time 21,0.1435
same,"growth curve reading, mean of 4 replicates",Δjen1 EV; time 25,0.1449
same,"growth curve reading, mean of 4 replicates",Δjen1 EV; time 27.5,0.1512
same,"growth curve reading, mean of 4 replicates",Δjen1 EV; time 43,0.1636
same,"growth curve reading, mean of 4 replicates",Δjen1 EV; time 45.5,0.1627
same,"growth curve reading, mean of 4 replicates",Δjen1 EV; time 48,0.1637
same,IC50,MCT1; read-out: previously reported IC50 value,5.12 nM
same,tolerability in phase-1 clinical trial,[1],relatively well tolerated
same,growth in media with lactate as the sole carbon source,"MCT1 (F360C); MCT1 F360C, AZD3965 10 μM, 0.5% lactate (S5 Fig)",inhibited growth
same,"growth curve reading, single replicate","MCT1 (F360C); T0, time 0",0.0403
same,"growth curve reading, single replicate","MCT1 (F360C); T1, time 19",0.1093 and 0.1204 and 0.1196 and 0.1290
same,"growth curve reading, single replicate","MCT1 (F360C); T2, time 21",0.1288 and 0.1364 and 0.1335
same,"growth curve reading, single replicate","MCT1 (F360C); T3, time 25",0.1550 and 0.1804 and 0.1853 and 0.2001
same,"growth curve reading, single replicate","MCT1 (F360C); T4, time 27.5",0.1660 and 0.1913 and 0.2008 and 0.2152
same,"growth curve reading, single replicate","MCT1 (F360C); T5, time 43",0.1991 and 0.2285 and 0.2378 and 0.2578
same,"growth curve reading, single replicate","MCT1 (F360C); T6, time 45.5",0.2030 and 0.2318 and 0.2431 and 0.2629
same,"growth curve reading, single replicate","MCT1 (F360C); T7, time 48",0.2036 and 0.2334 and 0.2458 and 0.2644
same,"growth curve reading, mean of 4 replicates",MCT1 (F360C); time 0,0.0403
same,"growth curve reading, mean of 4 replicates",MCT1 (F360C); time 19,0.1196
same,"growth curve reading, mean of 4 replicates",MCT1 (F360C); time 21,0.1338
same,"growth curve reading, mean of 4 replicates",MCT1 (F360C); time 25,0.1802
same,"growth curve reading, mean of 4 replicates",MCT1 (F360C); time 27.5,0.1933
same,"growth curve reading, mean of 4 replicates",MCT1 (F360C); time 43,0.2308
same,"growth curve reading, mean of 4 replicates",MCT1 (F360C); time 45.5,0.2352
same,"growth curve reading, mean of 4 replicates",MCT1 (F360C); time 48,0.2368
same,growth in media with lactate as the sole carbon source,"MCT1 (wildtype); wildtype MCT1, AZD3965 10 μM, 0.5% lactate (S5 Fig)",inhibited growth
same,"growth curve reading, single replicate","MCT1 (wildtype); Δjen1 MCT1, T0, time 0",0.0402
same,"growth curve reading, single replicate","MCT1 (wildtype); Δjen1 MCT1, T1, time 19",0.1316 and 0.1252 and 0.1281 and 0.1266
same,"growth curve reading, single replicate","MCT1 (wildtype); Δjen1 MCT1, T2, time 21",0.1442 and 0.1394 and 0.1417 and 0.1396
same,"growth curve reading, single replicate","MCT1 (wildtype); Δjen1 MCT1, T3, time 25",0.1656 and 0.1622 and 0.1633 and 0.1608
same,"growth curve reading, single replicate","MCT1 (wildtype); Δjen1 MCT1, T4, time 27.5",0.1778 and 0.1729 and 0.1762
same,"growth curve reading, single replicate","MCT1 (wildtype); Δjen1 MCT1, T5, time 43",0.2083 and 0.2030 and 0.2026 and 0.2041
same,"growth curve reading, single replicate","MCT1 (wildtype); Δjen1 MCT1, T6, time 45.5",0.2171 and 0.2098 and 0.2095 and 0.2126
same,"growth curve reading, single replicate","MCT1 (wildtype); Δjen1 MCT1, T7, time 48",0.2154 and 0.2089 and 0.2128 and 0.2107
same,"growth curve reading, mean of 4 replicates","MCT1 (wildtype); Δjen1 MCT1, time 0",0.0402
same,"growth curve reading, mean of 4 replicates","MCT1 (wildtype); Δjen1 MCT1, time 19",0.1279
same,"growth curve reading, mean of 4 replicates","MCT1 (wildtype); Δjen1 MCT1, time 21",0.1412
same,"growth curve reading, mean of 4 replicates","MCT1 (wildtype); Δjen1 MCT1, time 25",0.1630
same,"growth curve reading, mean of 4 replicates","MCT1 (wildtype); Δjen1 MCT1, time 27.5",0.1750
same,"growth curve reading, mean of 4 replicates","MCT1 (wildtype); Δjen1 MCT1, time 43",0.2045
same,"growth curve reading, mean of 4 replicates","MCT1 (wildtype); Δjen1 MCT1, time 45.5",0.2122
same,"growth curve reading, mean of 4 replicates","MCT1 (wildtype); Δjen1 MCT1, time 48",0.2120
"O=C(O)Cc1ccccc1Nc1c(Cl)cccc1Cl [Diclofenac, reference compound]",OffScreen_percentage,parent strain (SAWy518) [2],100.855 percentage
same,Offscreen_18hr,parent strain (SAWy518) [2],0.8139
same,Offscreen_24hr,parent strain (SAWy518) [2],0.8825
same,Offscreen_42hr,parent strain (SAWy518) [2],0.9387
same,Read_percentage,parent strain (SAWy518) [2],100.855 percentage
same,IC50,MCT1; read-out: previously reported inhibition value for MCT1 (IC50),1400 nM
same,blood-plasma concentration,[3]; 150–200 mg daily,6.1 µM
Cc1ccccc1-c1cc(N2CCN(C)CC2)ncc1N(C)C(=O)C(C)(C)c1cc(C(F)(F)F)cc(C(F)(F)F)c1 [Netupitant],OffScreen_percentage,parent strain (SAWy518) [2],103.271 percentage
same,Offscreen_18hr,parent strain (SAWy518) [2],0.8334
same,Offscreen_24hr,parent strain (SAWy518) [2],0.9137
same,Offscreen_42hr,parent strain (SAWy518) [2],0.9839
same,Read_percentage,parent strain (SAWy518) [2],103.271 percentage
same,Ki,[4],0.95 nM
same,Ki,[5],0.95 nM
same,Ki,[6],0.95 nM
same,viability at 10 µM,parent strain (SAWy518) [7],103%
"CN1C(C(=O)Nc2ccccn2)=C(O)c2ccccc2S1(=O)=O [Piroxicam, reference compound]",OffScreen_percentage,parent strain (SAWy518) [2],95.2292 percentage
same,Offscreen_18hr,parent strain (SAWy518) [2],0.7685 and 0.7781
same,Offscreen_24hr,parent strain (SAWy518) [2],0.8625 and 0.86
same,Offscreen_42hr,parent strain (SAWy518) [2],0.9267 and 0.9178
same,Read_percentage,parent strain (SAWy518) [2],95.2292 percentage
same,blood-plasma concentration,[3]; 20 mg/day,16 to 20 µM
same,concentrations of in vitro anticancer activity,cancer cell growth,25 to 30 µM
CCOC(=O)Oc1c(OC)cc(C(=O)O[C@@H]2C[C@@H]3CN4CCc5c([nH]c6cc(OC)ccc56)[C@H]4C[C@@H]3[C@H](C(=O)OC)[C@H]2OC)cc1OC [Syrosingopine],OffScreen_percentage,parent strain (SAWy518) [2],92.2553 percentage
same,Offscreen_18hr,parent strain (SAWy518) [2],0.7445
same,Offscreen_24hr,parent strain (SAWy518) [2],0.7958
same,Offscreen_42hr,parent strain (SAWy518) [2],0.9268
same,Read_percentage,parent strain (SAWy518) [2],92.2553
same,IC50,"MCT1; HAP1 cells, library annotation, read-out: IC50 MCT1",2500 nM
same,in vitro cancer cell growth,"cancer cell growth; 10 μM, administered alone",inhibit in vitro cancer cell growth
same,tumor growth in in vivo cancer models,tumor growth; alone versus paired with metformin,only effective in reducing tumor growth when paired with the mitochondrial oxidative phosphorylation inhibitor metformin
same,dose required to inhibit tumor growth in mice,tumor growth; mice,7.5 mg/kg
same,IC50,MCT4 [8],40 nM
same,IC50,MCT4 [9],40 nM
same,viability at 10 µM,parent strain (SAWy518) [7],92.3%
YM155,OffScreen_percentage,parent strain (SAWy518) [2],103.73 percentage
same,Offscreen_18hr,parent strain (SAWy518) [2],0.8371
same,Offscreen_24hr,parent strain (SAWy518) [2],0.9154
same,Offscreen_42hr,parent strain (SAWy518) [2],0.9694
same,Read_percentage,parent strain (SAWy518) [2],103.73
same,IC50,survivin [10],0.54 nM
same,IC50,survivin [11],0.54 nM
same,IC50,survivin [12],0.54 nM

# From publication PMC11637378, “Optogenetic screening of MCT1 activity implicates a cluster of non-steroidal anti-inflammatory drugs (NSAIDs) as inhibitors of lactate transport” (PLOS ONE, 2024)
